These results are taken from ChEMBL document CHEMBL1201862, “PubChem BioAssay data set” (2004).

Molecules are shown by their SMILES. The source made the active and inactive calls.

Test [1] has as its target Peroxisome proliferator-activated receptor gamma/Nuclear receptor coactivator 1 (Homo sapiens, UniProt P37231). The format is functional.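 Also: agonist potency as compounds enhance coactivator SRC-1 recruitment to PPARgamma.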
Test [2] has as its target Peroxisome proliferator-activated receptor gamma/Nuclear receptor coactivator 3 (Homo sapiens, UniProt P37231). Format: functional.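 Also: agonist potency for raising coactivator recruitment to the receptor.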
For another test, the target named is Prothrombin (Homo sapiens, UniProt P00734). Kind of test: Thrombin 1536 HTS Dose Response Confirmation. [Related pubchem assays: 1046 (Thrombin 1536 HTS; hits were confirmed in this assay)]. Format: functional.
Test [3] has as its target Peroxisome proliferator-activated receptor gamma/Nuclear receptor coactivator 2 (Homo sapiens, UniProt P37231). Format: functional.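 Also: agonist potency for raising coactivator recruitment to the receptor.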
Test [4] in a line: cells. Format: functional.
Test [5] in a line: NIH3T3 cell viability loss – ATP luminescence, mouse fibroblasts, counter-screen, dose response (AID 2010).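 Also: cells exposed to compound for about 90 hours before reading.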 The format is functional, cell-based. In general terms: Counterscreens check selectivity or assay interference.
Test [6] is described as follows: microbe, parasite or virus in culture. Format: functional. Particulars: Mycobacterium tuberculosis.
Test [7] in a line: cells.
Test [8] can be described thus: Trypanosoma cruzi growth suppression in host cells – NIH3T3 host cells, beta-gal luminescence, confirmation (AID 2044).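 Also: intracellular parasites grown in NIH/3T3 mouse fibroblasts as host cells; luminescent beta-galactosidase reporter signal from transgenic T. cruzi replicating inside host cells; inhibitors lower the luminescence signal.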 The format is functional, cell-based.
Test [9] concerns the target T1, Aryl hydrocarbon receptor (Homo sapiens, UniProt P35869).
T1 sequence (P35869 whole entry): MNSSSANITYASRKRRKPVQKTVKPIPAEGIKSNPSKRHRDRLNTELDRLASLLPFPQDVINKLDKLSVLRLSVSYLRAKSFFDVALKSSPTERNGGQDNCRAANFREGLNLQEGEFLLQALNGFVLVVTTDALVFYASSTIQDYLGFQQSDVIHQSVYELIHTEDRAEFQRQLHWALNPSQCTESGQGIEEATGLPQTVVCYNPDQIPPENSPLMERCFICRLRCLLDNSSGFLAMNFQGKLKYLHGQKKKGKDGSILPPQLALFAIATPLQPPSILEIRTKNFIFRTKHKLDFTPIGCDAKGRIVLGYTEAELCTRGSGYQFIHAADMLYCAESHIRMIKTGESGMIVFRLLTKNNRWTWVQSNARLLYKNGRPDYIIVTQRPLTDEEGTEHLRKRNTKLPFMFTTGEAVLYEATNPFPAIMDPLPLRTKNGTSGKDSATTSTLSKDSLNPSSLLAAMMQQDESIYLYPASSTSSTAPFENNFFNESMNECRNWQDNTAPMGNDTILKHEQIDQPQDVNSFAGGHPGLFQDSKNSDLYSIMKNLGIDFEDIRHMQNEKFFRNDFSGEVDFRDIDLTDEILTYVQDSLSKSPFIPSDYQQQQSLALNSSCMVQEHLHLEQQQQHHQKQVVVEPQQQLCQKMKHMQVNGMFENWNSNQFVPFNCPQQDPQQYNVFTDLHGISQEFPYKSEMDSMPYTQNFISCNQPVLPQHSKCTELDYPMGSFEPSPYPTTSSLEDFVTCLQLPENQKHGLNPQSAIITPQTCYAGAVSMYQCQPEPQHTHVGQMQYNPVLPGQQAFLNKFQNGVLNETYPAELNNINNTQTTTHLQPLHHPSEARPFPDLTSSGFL
Description: Luminescence-based cell-based high throughput dose response assay for activators of the Aryl Hydrocarbon Receptor (AHR). [Related pubchem assays: 2796 (Primary screen (AHR activators in singlicate)), 2845 (Confirmation screen (AHR activators in triplicate)), 434939 (Counterscreen (PXR activators in triplicate)), 2804 (Summary (AHR activators))]. Format: ADME.

Test [10] concerns the target Eukaryotic translation initiation factor 4E (Mus musculus, UniProt P63073). Description: blockers of eIF4G binding by eIF4E – biochemical, TR-FRET, dose response (AID 855).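 Also: potency for disrupting eIF4E binding to eIF4GI seen as loss of FRET.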 The format is functional.
Test [11] deals with T2, Voltage-gated N-type calcium channel alpha-1B subunit/Amyloid beta A4 precursor protein-binding family A member 1 (Homo sapiens, UniProt Q00975+Q02410). The format is protein assay.
Test [12] has as its target DNA dC->dU-editing enzyme APOBEC-3A (Homo sapiens, UniProt P31941). Kind of test: A3A deaminase inhibition for selectivity – biochemical, dose response (AID 504722). Format: functional.
For test [13], the target named is T3, Mannose-6-phosphate isomerase (Homo sapiens, UniProt P34949).
T3 sequence (P34949 whole entry): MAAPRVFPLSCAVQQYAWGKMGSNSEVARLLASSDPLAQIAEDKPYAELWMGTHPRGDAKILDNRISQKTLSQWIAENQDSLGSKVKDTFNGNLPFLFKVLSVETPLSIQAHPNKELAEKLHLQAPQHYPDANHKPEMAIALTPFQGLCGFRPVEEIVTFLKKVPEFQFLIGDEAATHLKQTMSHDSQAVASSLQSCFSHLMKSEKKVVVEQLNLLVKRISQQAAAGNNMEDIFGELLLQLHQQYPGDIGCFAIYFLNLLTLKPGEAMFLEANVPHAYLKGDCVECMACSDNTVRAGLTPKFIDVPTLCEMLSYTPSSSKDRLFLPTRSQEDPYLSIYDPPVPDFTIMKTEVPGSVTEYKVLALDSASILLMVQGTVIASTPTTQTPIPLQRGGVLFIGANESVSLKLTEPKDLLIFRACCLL
Kind of test: MPI inhibition at elevated mannose 6-phosphate – biochemical, fluorescence intensity, high mannose 6-phosphate, primary screen (AID 1220).

The target of test [14] is T2, Voltage-gated N-type calcium channel alpha-1B subunit/Amyloid beta A4 precursor protein-binding family A member 1. Format: protein assay. The source holds these as a separate data set.
Test [15] addresses DNA dC->dU-editing enzyme APOBEC-3G (Homo sapiens, UniProt Q9HC16). Description: Dose Response confirmation of small molecule APOBEC3G DNA Deaminase Inhibitors via a fluorescence-based single-stranded DNA deaminase assay. [Related pubchem assays (depositor defined):AID493012, AID493028]. Format: functional.
Test [16] can be described thus: viability of uninfected HEp-2 cells – cell-based, HTS, cytotoxicity control for RSV inhibitor project, dose response (AID 2410). The format is functional. Particulars: human respiratory syncytial virus.
The next test concerns the target T4, Aspartyl aminopeptidase (Plasmodium falciparum 3D7, UniProt Q8I2J3).
T4 sequence (Q8I2J3 whole entry): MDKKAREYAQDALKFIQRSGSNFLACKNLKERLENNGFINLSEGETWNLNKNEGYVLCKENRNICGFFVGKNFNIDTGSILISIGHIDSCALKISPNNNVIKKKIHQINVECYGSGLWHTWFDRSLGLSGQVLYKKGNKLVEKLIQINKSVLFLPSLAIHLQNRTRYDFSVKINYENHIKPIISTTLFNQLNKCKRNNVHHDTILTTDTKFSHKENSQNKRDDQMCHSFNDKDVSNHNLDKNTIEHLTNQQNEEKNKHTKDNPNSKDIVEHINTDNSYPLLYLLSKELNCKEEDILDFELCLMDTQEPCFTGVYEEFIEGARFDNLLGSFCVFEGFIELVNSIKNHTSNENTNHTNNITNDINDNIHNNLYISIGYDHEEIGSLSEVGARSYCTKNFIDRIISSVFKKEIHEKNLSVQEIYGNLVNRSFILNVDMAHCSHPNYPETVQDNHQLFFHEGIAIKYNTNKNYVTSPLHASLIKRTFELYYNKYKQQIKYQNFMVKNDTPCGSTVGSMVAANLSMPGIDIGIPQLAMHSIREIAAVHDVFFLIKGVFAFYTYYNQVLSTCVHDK
Description: Counterscreen for inhibitors of M1 and M17 aminopeptidases: QFRET-based biochemical high throughput dose response assay for inhibitors of the Plasmodium falciparum M18 Aspartyl Aminopeptidase (PFM18AAP). [Related PubChem assays: 1619 (Screening assay (M17LAP inhibitors).), 1445 (Screening assay (M1AAP inhibitors).)].

For another test, the target named is T5, Leucine aminopeptidase (Plasmodium falciparum 3D7, UniProt Q8IL11).
T5 sequence (Q8IL11 whole entry): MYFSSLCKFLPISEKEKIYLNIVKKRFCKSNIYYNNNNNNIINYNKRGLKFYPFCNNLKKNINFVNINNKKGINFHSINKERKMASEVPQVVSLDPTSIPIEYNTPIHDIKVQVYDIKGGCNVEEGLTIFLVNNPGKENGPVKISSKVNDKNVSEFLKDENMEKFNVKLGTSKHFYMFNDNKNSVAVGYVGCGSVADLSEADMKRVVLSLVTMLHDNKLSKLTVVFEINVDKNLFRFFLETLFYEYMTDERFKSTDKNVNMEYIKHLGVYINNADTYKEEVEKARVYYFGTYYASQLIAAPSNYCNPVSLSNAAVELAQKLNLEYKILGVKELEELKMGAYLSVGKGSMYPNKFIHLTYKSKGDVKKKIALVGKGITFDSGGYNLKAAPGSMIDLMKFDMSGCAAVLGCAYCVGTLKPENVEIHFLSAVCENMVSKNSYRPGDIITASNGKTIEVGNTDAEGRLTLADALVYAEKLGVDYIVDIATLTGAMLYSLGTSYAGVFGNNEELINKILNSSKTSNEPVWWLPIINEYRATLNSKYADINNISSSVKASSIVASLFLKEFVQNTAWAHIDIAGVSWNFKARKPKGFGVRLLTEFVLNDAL
Description: P. falciparum M17LAP inhibitors, primary screen, biochemical, fluorogenic H-Leu-NHMec substrate, 1536-well (AID 1619). The format is functional.

The target of a further test is Procathepsin L (Homo sapiens, UniProt P07711). Kind of test: CTSL1 protease inhibition – biochemical, QFRET, 1536-well, counter-screen for M1/M17 aminopeptidase inhibitor project, dose response (AID 2214).
Test [17] concerns the target Induced myeloid leukemia cell differentiation protein Mcl-1 (Homo sapiens, UniProt Q07820). Format: functional.
Test [18] deals with T6, Carboxy-terminal domain RNA polymerase II polypeptide A small phosphatase 1 (Homo sapiens, UniProt Q9GZU7).
T6 sequence (Q9GZU7 whole entry): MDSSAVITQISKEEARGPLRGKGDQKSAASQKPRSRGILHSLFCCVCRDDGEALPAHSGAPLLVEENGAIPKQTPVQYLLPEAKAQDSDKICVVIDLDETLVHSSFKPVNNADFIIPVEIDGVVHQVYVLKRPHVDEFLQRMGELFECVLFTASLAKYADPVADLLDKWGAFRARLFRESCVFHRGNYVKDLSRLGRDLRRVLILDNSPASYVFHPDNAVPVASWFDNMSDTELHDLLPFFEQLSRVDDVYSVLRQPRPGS
Description: CTDSP1 inhibitors, concentration-response, biochemical, absorbance readout, ultra-high-throughput screen actives (AID 540297). Format: functional.

In test [19] the target is T7, Estrogen receptor beta (Homo sapiens, UniProt Q92731).
Test [20] deals with T7, Estrogen receptor beta. Description: blockers of SRC-3 recruitment to ERβ – biochemical, ELISA, streptavidin-HRP readout, orthogonal assay, confirmation (AID 1060).

T7 sequence (Q92731 whole entry): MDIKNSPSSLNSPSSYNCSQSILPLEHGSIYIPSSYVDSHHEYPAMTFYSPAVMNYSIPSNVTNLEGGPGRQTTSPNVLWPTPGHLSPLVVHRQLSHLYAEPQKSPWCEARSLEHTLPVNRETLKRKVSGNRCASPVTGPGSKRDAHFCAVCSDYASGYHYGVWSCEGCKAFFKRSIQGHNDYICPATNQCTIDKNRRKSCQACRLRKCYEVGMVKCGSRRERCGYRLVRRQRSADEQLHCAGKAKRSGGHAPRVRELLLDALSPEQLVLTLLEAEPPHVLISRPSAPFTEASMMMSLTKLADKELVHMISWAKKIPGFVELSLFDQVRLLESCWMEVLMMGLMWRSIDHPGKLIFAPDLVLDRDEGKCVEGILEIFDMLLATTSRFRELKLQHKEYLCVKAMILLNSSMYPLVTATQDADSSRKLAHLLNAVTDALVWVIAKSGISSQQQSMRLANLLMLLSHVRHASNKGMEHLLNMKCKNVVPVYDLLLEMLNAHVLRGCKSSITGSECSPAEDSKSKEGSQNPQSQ
T2 sequence (Q00975 whole entry): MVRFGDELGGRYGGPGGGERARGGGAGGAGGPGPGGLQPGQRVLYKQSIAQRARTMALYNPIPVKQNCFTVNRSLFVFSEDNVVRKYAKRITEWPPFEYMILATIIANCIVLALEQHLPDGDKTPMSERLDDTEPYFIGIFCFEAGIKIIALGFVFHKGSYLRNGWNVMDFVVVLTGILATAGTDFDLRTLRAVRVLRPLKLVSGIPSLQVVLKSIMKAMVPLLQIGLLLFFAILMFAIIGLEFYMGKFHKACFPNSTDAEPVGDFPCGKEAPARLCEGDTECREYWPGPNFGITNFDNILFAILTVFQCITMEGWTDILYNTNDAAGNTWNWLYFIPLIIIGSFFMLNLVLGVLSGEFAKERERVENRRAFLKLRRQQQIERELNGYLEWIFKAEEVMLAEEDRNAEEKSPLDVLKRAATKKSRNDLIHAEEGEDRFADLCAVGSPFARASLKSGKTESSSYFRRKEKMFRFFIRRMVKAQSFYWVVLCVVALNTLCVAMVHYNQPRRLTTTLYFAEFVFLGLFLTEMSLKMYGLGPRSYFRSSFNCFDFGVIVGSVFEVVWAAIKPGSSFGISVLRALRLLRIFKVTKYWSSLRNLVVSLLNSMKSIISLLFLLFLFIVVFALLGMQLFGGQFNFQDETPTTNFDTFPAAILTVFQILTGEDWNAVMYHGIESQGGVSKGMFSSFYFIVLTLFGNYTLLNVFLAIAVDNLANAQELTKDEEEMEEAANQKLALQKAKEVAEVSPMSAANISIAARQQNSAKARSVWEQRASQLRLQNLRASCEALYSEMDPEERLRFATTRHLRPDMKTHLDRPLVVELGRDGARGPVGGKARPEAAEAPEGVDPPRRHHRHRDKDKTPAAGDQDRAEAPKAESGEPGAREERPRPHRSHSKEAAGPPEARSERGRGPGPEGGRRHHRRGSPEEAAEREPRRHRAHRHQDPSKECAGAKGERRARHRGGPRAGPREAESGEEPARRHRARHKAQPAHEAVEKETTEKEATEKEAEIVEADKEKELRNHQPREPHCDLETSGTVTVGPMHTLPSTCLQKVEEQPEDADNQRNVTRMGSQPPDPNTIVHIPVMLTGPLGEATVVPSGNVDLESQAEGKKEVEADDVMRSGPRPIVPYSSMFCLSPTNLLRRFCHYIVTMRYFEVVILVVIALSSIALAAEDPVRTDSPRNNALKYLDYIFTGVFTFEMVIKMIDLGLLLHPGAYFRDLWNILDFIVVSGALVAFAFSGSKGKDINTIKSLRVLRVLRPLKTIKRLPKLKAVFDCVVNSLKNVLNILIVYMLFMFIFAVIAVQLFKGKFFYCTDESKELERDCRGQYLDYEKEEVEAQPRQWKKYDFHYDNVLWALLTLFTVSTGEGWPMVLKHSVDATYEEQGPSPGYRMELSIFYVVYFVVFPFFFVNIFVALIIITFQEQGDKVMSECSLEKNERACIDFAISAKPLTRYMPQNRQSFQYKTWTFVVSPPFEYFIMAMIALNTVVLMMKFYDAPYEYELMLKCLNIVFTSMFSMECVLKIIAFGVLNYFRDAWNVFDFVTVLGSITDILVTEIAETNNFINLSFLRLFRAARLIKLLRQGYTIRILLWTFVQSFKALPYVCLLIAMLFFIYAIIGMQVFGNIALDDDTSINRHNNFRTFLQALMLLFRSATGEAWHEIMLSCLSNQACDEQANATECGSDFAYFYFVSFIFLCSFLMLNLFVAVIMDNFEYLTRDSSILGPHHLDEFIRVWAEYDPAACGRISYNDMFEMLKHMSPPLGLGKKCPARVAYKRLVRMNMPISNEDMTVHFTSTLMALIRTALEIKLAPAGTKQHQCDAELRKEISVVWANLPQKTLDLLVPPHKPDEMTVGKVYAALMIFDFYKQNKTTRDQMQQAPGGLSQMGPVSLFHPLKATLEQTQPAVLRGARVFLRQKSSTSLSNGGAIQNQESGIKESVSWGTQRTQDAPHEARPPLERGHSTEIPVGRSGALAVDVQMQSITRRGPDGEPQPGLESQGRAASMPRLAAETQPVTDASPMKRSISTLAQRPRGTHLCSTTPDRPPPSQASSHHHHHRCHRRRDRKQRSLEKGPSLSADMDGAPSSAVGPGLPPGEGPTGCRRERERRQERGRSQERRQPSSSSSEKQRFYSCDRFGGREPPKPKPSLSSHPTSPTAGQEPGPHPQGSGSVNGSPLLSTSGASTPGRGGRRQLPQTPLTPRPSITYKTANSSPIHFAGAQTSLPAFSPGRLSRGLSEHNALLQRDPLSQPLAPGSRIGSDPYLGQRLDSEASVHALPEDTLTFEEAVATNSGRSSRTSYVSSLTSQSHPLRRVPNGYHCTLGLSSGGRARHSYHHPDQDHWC
T2 sequence (Q02410 whole entry): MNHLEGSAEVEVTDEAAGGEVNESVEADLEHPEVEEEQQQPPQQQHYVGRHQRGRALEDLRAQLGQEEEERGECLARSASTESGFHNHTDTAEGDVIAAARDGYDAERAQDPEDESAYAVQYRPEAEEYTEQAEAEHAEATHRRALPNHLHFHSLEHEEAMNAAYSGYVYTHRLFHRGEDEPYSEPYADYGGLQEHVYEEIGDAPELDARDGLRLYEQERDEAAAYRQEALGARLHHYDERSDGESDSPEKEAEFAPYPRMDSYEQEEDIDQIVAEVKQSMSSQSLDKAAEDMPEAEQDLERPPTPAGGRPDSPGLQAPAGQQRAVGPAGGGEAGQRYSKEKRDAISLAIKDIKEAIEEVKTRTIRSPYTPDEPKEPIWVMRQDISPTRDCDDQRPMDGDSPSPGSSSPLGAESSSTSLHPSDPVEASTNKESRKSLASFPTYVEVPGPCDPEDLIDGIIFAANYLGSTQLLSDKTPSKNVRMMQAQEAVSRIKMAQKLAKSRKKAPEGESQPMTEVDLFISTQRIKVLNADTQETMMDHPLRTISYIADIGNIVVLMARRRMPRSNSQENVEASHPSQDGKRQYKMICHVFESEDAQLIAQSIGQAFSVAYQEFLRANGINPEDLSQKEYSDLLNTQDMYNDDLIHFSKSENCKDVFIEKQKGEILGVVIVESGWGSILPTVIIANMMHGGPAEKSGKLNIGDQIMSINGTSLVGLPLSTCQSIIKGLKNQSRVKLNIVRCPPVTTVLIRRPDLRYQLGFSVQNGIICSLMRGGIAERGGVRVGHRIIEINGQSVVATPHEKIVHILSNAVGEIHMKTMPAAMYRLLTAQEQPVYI
Sequence of Procathepsin L (P07711 whole entry): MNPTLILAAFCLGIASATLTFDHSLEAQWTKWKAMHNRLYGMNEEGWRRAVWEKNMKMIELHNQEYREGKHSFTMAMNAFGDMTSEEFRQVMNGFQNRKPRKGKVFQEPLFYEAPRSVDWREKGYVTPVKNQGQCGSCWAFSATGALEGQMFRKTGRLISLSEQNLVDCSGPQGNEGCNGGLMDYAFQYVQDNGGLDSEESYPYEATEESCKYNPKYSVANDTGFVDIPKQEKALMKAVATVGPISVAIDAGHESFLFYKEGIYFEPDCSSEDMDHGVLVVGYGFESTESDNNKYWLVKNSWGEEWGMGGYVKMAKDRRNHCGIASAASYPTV
Sequence of DNA dC->dU-editing enzyme APOBEC-3A (P31941 whole entry): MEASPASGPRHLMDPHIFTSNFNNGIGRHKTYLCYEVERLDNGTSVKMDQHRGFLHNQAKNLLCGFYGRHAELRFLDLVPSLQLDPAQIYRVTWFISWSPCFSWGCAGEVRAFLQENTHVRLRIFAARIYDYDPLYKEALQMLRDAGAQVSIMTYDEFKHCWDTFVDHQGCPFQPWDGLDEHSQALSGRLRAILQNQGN
Sequence of Induced myeloid leukemia cell differentiation protein Mcl-1 (Q07820 whole entry, the tested form may be a part): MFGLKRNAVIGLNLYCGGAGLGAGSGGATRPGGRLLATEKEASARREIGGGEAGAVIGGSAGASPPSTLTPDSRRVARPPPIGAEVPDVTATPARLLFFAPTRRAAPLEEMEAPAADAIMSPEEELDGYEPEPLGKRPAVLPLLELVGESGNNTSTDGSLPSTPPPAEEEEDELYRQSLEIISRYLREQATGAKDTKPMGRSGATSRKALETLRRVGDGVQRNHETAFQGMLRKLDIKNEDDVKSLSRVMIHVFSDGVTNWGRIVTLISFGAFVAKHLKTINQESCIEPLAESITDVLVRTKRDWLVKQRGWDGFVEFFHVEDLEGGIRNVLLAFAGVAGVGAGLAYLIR
Sequence of DNA dC->dU-editing enzyme APOBEC-3G (Q9HC16 whole entry): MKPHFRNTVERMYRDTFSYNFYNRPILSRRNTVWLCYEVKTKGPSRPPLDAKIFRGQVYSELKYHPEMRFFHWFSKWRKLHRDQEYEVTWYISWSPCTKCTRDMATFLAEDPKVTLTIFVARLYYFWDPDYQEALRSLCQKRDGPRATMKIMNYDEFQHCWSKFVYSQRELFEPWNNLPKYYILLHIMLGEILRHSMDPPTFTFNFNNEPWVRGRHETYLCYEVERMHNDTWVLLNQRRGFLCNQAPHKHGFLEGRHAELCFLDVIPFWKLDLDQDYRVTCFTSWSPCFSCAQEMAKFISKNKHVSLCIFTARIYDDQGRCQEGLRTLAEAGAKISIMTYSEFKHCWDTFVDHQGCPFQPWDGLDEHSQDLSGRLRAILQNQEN

As usually defined, the EC50 is the concentration needed to bring the measured effect to its halfway point. By IC50 is commonly meant the concentration that inhibits the measured activity by half. Take `COc1cc(OC)cc(-n2nnnc2SCC(=O)Nc2ccc(C(C)=O)cc2)c1`: the EC50 was 8.56 µM (active) in test [1], 8.1 µM (active) in [2] and 5.13 µM (active) in [3]. Moreover, the IC50 against Prothrombin is listed as > 50 µM (not active).
For `O=C(c1cc([N+](=O)[O-])cc([N+](=O)[O-])c1)N(Cc1nnc(-c2ccccc2Cl)o1)C1CC1`, the half-maximal inhibitory concentration (IC50) in the test “cells [4]” was 1.75 µM (active). Further, the figures for the concentration giving a half-maximal response (EC50) (in test [5]; in “cells [7]”; in [8]) were > 60 µM (not active), 0.068 µM (active) and < 0.1 µM (active), respectively. Also, the CC50 in [6] was > 40 µM (active).
Consider `CCN(/N=C/c1ccc(Cl)cc1)c1cc(=O)n(C)c(=O)[nH]1`, for which, in test [9], the EC50 is 1.12 µM (active).
As to `CN(C)c1ccc(CNCCC2CCOC(C)(C)C2)cc1` (stereo not given), the 50% effective concentration (EC50) in [5] is > 30 µM (not active); in “cells [7]” it was 0.036 µM (active); in test [8], < 0.1 µM (active).
`CCOC(=O)c1ccc(/N=c2\ssnc2Cl)cc1`: the IC50 was 50 µM (inactive) in [10]; 7.13 µM (active) in test [11]; > 100 µM (inactive) in test [12]; > 50 µM (not active) in test [13]; 11.5 µM (active) in [14]; 13.8 µM (active) in [15].
As for `Cc1cc(C)n2cc(-c3ccc(Cl)cc3)c(C(=O)O)c2n1`, the CC50 in test [16] was 38.9 µM (active). Moreover, the half-maximal effective concentration (EC50) in test [9] is 0.994 µM (active).
For the molecule `CC1(C)Cc2c(sc(NC(=O)C3CC(Cl)=CCC3C(=O)O)c2C#N)CO1` (stereo not given), the values for the 50% inhibitory concentration (IC50) at Aspartyl aminopeptidase, at Leucine aminopeptidase and on Procathepsin L were > 73.5 µM (not active), 1.4 µM (active) and > 59.6 µM (not active), respectively.
With `CCOC(=O)c1sc(NC(=O)/C=C/c2cnn(C)c2C)c(C(=O)OCC)c1C`, the IC50 at Prothrombin is reported as > 50 µM (not active).
Take `Cc1ccc(/C=c2\sc3nc(-c4ccccc4Br)nn3c2=O)o1`: the concentration for half-maximal inhibition (IC50) in test [17] was 3.18 µM (active); against Prothrombin, > 50 µM (not active); in test [18], 5.95 µM (active); against Estrogen receptor beta [19], > 50 µM (not active); on Leucine aminopeptidase, 95.5 µM (active); on Estrogen receptor beta [20], 0.0611 µM (not active).
As to `Nc1c(C(=O)c2ccc(Br)cc2)oc2ccccc12`, the EC50 in [9] was 3.3 µM (active).
Consider `C=CCn1c(N)cc(=O)nc1SCC(=O)Nc1ccc2ccccc2c1`, for which the IC50 is > 73.5 µM (not active) against Aspartyl aminopeptidase, 5.68 µM (active) at Leucine aminopeptidase and > 59.6 µM (not active) against Procathepsin L.
